For experiment [1], the target named is T1, Protein-glutamine gamma-glutamyltransferase (Homo sapiens, UniProt P21980).
T1 sequence (P21980 whole entry): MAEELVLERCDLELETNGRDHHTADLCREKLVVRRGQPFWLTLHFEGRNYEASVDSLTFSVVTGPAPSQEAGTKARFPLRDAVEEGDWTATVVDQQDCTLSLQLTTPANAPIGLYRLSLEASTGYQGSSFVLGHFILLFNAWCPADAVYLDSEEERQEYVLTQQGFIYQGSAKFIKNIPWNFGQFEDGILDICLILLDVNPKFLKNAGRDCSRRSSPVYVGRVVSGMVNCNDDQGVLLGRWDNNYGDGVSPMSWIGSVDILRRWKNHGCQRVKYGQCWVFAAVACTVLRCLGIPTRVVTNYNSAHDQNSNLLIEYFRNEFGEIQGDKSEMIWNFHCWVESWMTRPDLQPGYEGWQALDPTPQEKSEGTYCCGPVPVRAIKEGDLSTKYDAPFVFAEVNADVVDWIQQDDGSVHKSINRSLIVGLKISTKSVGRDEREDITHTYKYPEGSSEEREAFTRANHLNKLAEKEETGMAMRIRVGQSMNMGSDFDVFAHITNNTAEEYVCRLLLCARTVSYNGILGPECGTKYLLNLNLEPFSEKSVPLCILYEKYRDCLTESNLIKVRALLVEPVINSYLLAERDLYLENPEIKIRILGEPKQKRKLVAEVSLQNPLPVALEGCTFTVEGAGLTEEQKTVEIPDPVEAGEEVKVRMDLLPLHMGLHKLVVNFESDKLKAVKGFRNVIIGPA
Description: Irreversible inhibition of transglutaminase 2.

Experiment [2] has as its target T2, Protein-glutamine gamma-glutamyltransferase E (Homo sapiens, UniProt Q08188).
T2 sequence (Q08188 whole entry): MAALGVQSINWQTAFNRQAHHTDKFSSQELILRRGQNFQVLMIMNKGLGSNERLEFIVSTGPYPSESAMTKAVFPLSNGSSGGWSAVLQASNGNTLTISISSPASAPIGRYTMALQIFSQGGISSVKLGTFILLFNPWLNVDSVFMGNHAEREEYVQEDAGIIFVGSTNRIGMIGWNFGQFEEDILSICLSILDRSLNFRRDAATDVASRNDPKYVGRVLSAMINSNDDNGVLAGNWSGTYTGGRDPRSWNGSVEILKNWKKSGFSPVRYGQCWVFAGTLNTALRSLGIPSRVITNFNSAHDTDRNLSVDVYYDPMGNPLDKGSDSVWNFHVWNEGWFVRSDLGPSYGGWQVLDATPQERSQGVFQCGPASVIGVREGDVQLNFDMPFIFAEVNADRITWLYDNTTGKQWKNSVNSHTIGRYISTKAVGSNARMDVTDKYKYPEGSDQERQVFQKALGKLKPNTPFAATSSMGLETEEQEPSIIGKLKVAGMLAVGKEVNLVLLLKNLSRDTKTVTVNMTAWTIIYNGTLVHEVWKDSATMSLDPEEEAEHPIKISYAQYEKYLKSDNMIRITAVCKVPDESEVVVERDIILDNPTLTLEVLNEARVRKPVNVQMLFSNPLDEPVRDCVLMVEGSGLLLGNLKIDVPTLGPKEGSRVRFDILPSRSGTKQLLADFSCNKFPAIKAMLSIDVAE
Description: Inhibition of transglutaminase 3.

Experiment [3] addresses T3, Protein-glutamine gamma-glutamyltransferase K (Homo sapiens, UniProt P22735).
T3 sequence (P22735 whole entry): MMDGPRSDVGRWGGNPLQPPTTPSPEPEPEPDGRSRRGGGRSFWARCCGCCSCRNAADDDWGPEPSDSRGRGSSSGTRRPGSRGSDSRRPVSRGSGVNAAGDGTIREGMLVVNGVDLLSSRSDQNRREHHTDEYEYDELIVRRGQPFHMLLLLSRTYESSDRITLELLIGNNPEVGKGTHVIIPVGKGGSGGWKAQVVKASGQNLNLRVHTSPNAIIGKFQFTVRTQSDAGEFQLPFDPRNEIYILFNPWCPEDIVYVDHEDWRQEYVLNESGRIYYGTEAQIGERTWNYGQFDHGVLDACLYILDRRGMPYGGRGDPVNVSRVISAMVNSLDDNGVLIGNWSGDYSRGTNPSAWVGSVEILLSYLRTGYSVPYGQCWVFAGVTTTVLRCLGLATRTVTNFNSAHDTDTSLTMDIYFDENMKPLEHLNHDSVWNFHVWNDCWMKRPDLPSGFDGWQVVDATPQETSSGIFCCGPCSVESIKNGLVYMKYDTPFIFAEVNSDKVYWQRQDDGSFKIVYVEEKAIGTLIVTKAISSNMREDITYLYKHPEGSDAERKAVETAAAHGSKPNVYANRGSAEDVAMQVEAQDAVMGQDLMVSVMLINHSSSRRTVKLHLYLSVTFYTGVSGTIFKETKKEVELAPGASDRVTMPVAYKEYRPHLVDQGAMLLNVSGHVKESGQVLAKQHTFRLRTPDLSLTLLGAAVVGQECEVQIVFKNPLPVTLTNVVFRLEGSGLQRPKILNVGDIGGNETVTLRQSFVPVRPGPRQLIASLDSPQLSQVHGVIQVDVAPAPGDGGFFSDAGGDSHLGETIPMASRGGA
The experiment can be described thus: Inhibition of transglutaminase 1.

Experiment [4] addresses T4, Coagulation factor XIII A chain (Homo sapiens, UniProt P00488).
T4 sequence (P00488 whole entry): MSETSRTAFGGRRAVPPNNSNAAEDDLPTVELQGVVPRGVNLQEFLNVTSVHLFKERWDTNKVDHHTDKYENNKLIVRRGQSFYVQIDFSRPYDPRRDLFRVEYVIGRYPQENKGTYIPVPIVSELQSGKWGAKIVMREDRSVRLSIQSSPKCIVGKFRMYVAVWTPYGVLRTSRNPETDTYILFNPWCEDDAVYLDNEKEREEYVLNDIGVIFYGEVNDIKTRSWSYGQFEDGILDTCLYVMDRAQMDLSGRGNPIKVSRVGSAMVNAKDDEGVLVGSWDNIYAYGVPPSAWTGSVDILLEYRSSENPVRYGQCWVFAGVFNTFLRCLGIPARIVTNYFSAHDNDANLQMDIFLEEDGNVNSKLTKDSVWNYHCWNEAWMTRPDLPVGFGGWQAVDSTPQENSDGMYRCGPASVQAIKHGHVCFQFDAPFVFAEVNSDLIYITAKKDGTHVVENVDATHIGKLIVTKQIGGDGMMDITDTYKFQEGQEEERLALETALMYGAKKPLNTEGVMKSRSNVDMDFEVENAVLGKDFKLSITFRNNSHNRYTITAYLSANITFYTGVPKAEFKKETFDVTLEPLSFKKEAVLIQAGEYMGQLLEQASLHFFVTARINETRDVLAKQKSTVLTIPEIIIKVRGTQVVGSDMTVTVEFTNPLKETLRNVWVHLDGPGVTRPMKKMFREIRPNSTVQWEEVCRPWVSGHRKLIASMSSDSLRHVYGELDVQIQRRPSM
The experiment can be described thus: Inhibition of coagulation factor 13a.

Experiment [5] can be described thus: Ratio of IC50 for mouse transglutaminase 2 to IC50 for human transglutaminase 2.

As to `C=CC(=O)NCCCCCNC(=O)OCc1ccccc1`, the IC50 in experiment [1] is 7600 nM.
`C=CC(=O)NCCCC[C@H](NC(=O)OCc1ccccc1)C(=O)N(CC)CC`: the midpoint of inhibition in experiment [1], the IC50, lay at 1400 nM.
The same measure, in the same setting: then `C=CC(=O)NCCCC[C@H](NC(C)=O)C(=O)N1CCN(c2cccc(C)n2)CC1`, with 190 nM.
On to `C=CC(=O)NCCCC[C@H](NC(=O)OCc1ccccc1)C(=O)N1CCC(c2ccccc2)CC1`, for which the 50% inhibitory concentration (IC50) in experiment [2] is above 80000 nM; in experiment [1] it was 54 nM; in experiment [3], 9300 nM; in experiment [4], 21000 nM.
The compound `C=CC(=O)NCCCC[C@H](NC(=O)OCc1ccccc1)C(=O)N1CCN(C)CC1` had an IC50 in experiment [1] of 610 nM. The Ratio IC50 in experiment [5] was found to be 2.
The matching figures for `C=CC(=O)NCCCC[C@H](NC(=O)OCc1ccccc1)C(=O)N1CCN(c2ccccn2)CC1`: 260 nM and 2.
The compound `C=CC(=O)NCCCC[C@H](NC(=O)OCc1ccccc1)C(=O)N1CCN(c2cc(Cl)ccc2OC)CC1` came in with an IC50 in experiment [1] of 78 nM. The Ratio IC50 in experiment [5] came out at 2.
With `C=CC(=O)NCCCC[C@H](NC(=O)OCc1ccc(F)cc1)C(=O)O`, the IC50 in experiment [1] was 7900 nM.
Regarding `C=CC(=O)NCCCC[C@H](NC(=O)OCc1c(F)cccc1F)C(=O)O`, the IC50 in experiment [1] worked out at 10000 nM.
The same measure, in the same setting: then `C=CC(=O)NCCCC[C@H](NC(=O)OCc1ccccc1)C(=O)N1CCCC1`, with 580 nM; and `C=CC(=O)N1CCC(C[C@H](NC(=O)OC(C)(C)C)C(=O)O)CC1`, with above 80000 nM; and `C=CC(=O)NCCCC[C@H](NC(=O)OCc1ccc(C)cc1)C(=O)O`, with 14000 nM.
In experiment [1], `C=CC(=O)NCCCC[C@H](NC(=O)OCc1ccccc1)C(=O)O` came in with an IC50 of 2700 nM.
In the case of `C=CC(=O)NCCCC[C@H](NC(=O)OCc1ccccc1)C(=O)N1CCN(c2cccc(C)n2)CC1`, the IC50 in experiment [1] was found to be 55 nM. For the same compound, the Ratio IC50 in experiment [5] amounted to 2.
On the same counts, the results for `C=CC(=O)NCCCC[C@H](NC(=O)OCc1ccccc1)C(=O)N1CCN(c2ncccc2C(F)(F)F)CC1` are 160 nM and 2.
Turning to `C=CC(=O)NCCCC[C@H](NC(=O)OCc1cccc(C(F)(F)F)c1)C(=O)O`, the IC50 in experiment [1] came out at 10000 nM.
Same read-out and setting: then `C=CC(=O)NCCCC[C@H](NC(=O)OCc1ccccc1)C(=O)N(C)C`, with 1100 nM; and `C=CC(=O)NCCCC[C@H](NC(=O)c1ccccc1)C(=O)N1CCN(c2cccc(C)n2)CC1`, with 190 nM; and `C=CC(=O)NCCCC[C@H](NC(=O)OCc1ccc(CCCC)cc1)C(=O)O`, with 5900 nM.
Still for that read-out and setting: as for `C=CC(=O)NCCCC[C@H](NC(=O)OCc1ccc2ccccc2c1)C(=O)O`, the figure is 9100 nM; as for `C=CC(=O)NCCC1C[C@@H](C(=O)N2CCN(c3cccc(C)n3)CC2)N(C(=O)OC(C)(C)C)C1` (mixture of isomers), 1800 nM.
Still for that read-out and setting: as for `C=CC(=O)NCCCC[C@H](NC(=O)OCc1ccccc1)C(=O)N1Cc2ccccc2C1`, the figure is 240 nM; as for `C=CC(=O)Nc1ccc(C[C@H](NC(=O)OCc2ccccc2)C(=O)O)cc1`, above 80000 nM; as for `C=CC(=O)NCCCC[C@@H](CO)NC(=O)OCc1ccccc1`, 5400 nM.
The compound `C=CC(=O)NCCCC[C@H](NC(=O)OCc1ccccc1Cl)C(=O)O` gave an IC50 in experiment [1] of 1900 nM. This IC50 lies about 2.8-fold lower than the previous one.
Compound `C=CC(=O)NCCCC[C@H](NC(=O)OCc1ccccc1)C(=O)N1CCC1` gave an IC50 in experiment [1] of 2500 nM.
Regarding `C=CC(=O)NCCCC[C@H](NC(=O)OCc1ccc(C(C)(C)C)cc1)C(=O)O`, the IC50 in experiment [1] turned out to be 21000 nM.
For the compound `C=CC(=O)NCCCC[C@H](NC(=O)OCc1ccc([N+](=O)[O-])cc1)C(=O)O`, the IC50 in experiment [1] was found to be 62000 nM.
Take `C=CC(=O)NCCCC[C@H](NC(=O)OCc1ccccc1)C(=O)N1CCN(c2ccc3ccccc3c2)CC1`: in experiment [1], half-maximal inhibition (IC50) required 230 nM. Besides, in experiment [5], the Ratio IC50 worked out at 2.
Consider `C=CC(=O)NCCCC[C@H](NC(=O)OC(C)(C)C)C(=O)N1CCN(c2cccc(C)n2)CC1`, for which the IC50 in experiment [1] worked out at 850 nM. This lies in the sub-micromolar range.
Consider `C=CC(=O)NCCCC[C@H](NC(=O)OCc1ccc(C(F)(F)F)cc1)C(=O)O`, for which the IC50 in experiment [1] stood at 33000 nM.
`C=CC(=O)NCCCC[C@H](NC(=O)OCc1ccccc1)C(=O)N1CCOCC1` came in with an IC50 in experiment [1] of 730 nM. This IC50 is about 45-fold lower than that of the compound before.
Consider `C=CC(=O)NCCCC[C@H](NC(=O)OCc1ccccc1)C(=O)N1CCN(c2ncccc2C)CC1`, for which 170 nM corresponded to half-maximal inhibition in experiment [1] (IC50). For the same compound, the Ratio IC50 in experiment [5] was determined as 2.
In turn, `C=CC(=O)NCCCC[C@H](NC(=O)c1ccc2ccccc2c1)C(=O)N1CCN(c2cccc(C)n2)CC1` yielded an IC50 in experiment [1] of 1600 nM. In other words, the single-digit micromolar range.
Still for that read-out and setting: as for `C=CC(=O)NCCCC[C@H](NC(=O)OC)C(=O)O`, the figure is above 80000 nM.
The compound `C=CC(=O)NCCCC[C@H](NC(=O)OCc1ccccc1)C(=O)N1CCCCCC1` showed an IC50 in experiment [1] of 590 nM.
Same read-out and setting: as for `C=CC(=O)NCCCC[C@H](NC(=O)OCc1ccccc1)C(=O)N1CCC(F)(F)CC1`, the figure is 660 nM; as for `C=CC(=O)NCCCC[C@H](NC(=O)OCc1cccc2ccccc12)C(=O)O`, 14000 nM; as for `C=CC(=O)NCCCC[C@H](NC(=O)OCc1ccccc1C(F)(F)F)C(=O)O`, 3500 nM.
In turn, `C=CC(=O)NCCCC[C@H](NC(=O)OCc1ccccc1)C(=O)N1CCCCC1` registered an IC50 in experiment [1] of 1200 nM.
Consider `C=CC(=O)NCCCC[C@H](NC(=O)OCc1ccccc1)C(=O)N1CCN(c2ccc(C(F)(F)F)cn2)CC1`, for which half-maximal inhibition in experiment [1] (IC50) was put at 110 nM. Further, the Ratio IC50 in experiment [5] was determined as 2.

Source of the values: ChEMBL document CHEMBL2203174, “SAR Development of Lysine-Based Irreversible Inhibitors of Transglutaminase 2 for Huntington's Disease” (ACS Med Chem Lett, 2012).
